Earlier results in US20160088844A1 (priority 2013, published 2016).

System: roots of plants; seeds of a variety of species
Conditions: in vivo

Cn1c(=O)c2c(ncn2C)n(C)c1=O [caffeine]
mitosis in the roots of plants: inhibit mitosis
seed germination in a variety of species: inhibit seed germination
